{"source": "patent US7420056B2", "about": "“Substituted bicyclic imidazo-3-ylamine compounds” (Gruenenthal GmbH, priority 2004, dated 2008)", "note": "Counter-ions that a name gives are not always drawn."}
{"target": "mGluR5 receptor (Sus scrofa, UniProt I3LUI7)", "sequence (I3LUI7 19-1212)": "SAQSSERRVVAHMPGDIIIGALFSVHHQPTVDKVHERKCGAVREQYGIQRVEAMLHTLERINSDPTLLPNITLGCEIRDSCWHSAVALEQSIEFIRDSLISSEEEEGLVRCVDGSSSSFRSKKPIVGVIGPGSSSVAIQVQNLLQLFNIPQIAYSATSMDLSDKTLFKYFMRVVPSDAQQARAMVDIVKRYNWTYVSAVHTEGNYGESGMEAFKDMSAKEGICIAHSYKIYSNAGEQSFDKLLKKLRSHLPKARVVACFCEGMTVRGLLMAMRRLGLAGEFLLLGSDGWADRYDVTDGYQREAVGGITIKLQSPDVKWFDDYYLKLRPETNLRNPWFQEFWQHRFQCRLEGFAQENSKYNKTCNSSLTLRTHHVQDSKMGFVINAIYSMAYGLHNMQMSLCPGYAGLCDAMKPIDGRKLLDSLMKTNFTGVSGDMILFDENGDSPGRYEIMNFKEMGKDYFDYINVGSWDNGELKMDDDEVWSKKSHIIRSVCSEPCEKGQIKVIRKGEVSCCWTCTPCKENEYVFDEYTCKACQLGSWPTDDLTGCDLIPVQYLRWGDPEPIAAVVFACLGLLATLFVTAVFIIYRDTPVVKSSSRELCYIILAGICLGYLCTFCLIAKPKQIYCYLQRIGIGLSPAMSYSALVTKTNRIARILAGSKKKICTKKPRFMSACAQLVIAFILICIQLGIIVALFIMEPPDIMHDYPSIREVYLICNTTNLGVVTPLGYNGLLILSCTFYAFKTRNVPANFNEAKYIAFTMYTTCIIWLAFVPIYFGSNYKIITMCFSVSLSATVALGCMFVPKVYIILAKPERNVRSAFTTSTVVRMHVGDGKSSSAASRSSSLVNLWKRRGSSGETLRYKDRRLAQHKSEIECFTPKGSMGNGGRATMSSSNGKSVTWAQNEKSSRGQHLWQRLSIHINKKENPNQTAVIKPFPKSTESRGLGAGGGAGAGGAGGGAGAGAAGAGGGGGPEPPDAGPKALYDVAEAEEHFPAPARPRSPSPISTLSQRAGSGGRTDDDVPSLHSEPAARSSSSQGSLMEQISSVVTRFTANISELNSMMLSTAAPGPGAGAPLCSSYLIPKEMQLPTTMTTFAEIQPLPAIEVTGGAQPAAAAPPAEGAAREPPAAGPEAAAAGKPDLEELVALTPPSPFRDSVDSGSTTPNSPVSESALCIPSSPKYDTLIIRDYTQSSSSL", "assay": "Affinity for the mGluR5 receptor: inhibition of 3[H]-MPEP binding in pig brain homogenate", "conditions": "10 μM compound, 5 nM 3[H]-MPEP, read-out: mGluR5 receptor inhibition of ^3[H]-MPEP binding [10 μM] in % at a concentration of the example compounds of 10 μM", "in_short": "(§1)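 Test compounds were screened at 10 μM for displacement of 5 nM [3H]-MPEP from pig brain homogenate (450 μg protein, pH 8.0 Hepes buffer) over 60 min at room temperature. After filtration, scintillation counting gave the read-out. 10 μM unlabelled MPEP set nonspecific binding.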", "units": {"inhibition at 10 µM": "%"}}
{"smiles": "Cc1cc(Br)c2nc(-c3cccc(C#Cc4ccccn4)c3)c(NC3CCCC3)n2c1", "note": "[Example 211, 8-bromo-N-cyclopentyl-6-methyl-2-(3-(pyridin-2-ylethynyl)phenyl)imidazo[1,2-a]pyridin-3-amine]", "inhibition at 10 µM": 82}
{"smiles": "Cc1cccc(C#Cc2cccc(-c3nc4cccc(C)n4c3NC(C)(C)C)c2)n1", "note": "[Example 290, N-tert-butyl-5-methyl-2-(3-((6-methylpyridin-2-yl)ethynyl)phenyl)imidazo[1,2-a]pyridin-3-amine]", "inhibition at 10 µM": 88}
{"smiles": "Cc1cc(C)n2c(NCC3CCCCC3)c(-c3ccc(C#Cc4ccccc4)s3)nc2c1", "note": "[Example 6, cyclohexylmethyl-[5,7-dimethyl-2-(5-phenylethynyl-thiophen-2-yl)-imidazo[1,2-a]pyridin-3-yl]-amine]", "inhibition at 10 µM": 92}
{"smiles": "COc1cccc(CCNc2c(-c3cc(C#Cc4ccccc4)cs3)nc3nc(C)cc(C)n23)c1", "note": "[Example 196, N-(3-methoxyphenethyl)-5,7-dimethyl-2-(4-(phenylethynyl)thiophen-2-yl)imidazo[1,2-a]pyrimidin-3-amine]", "inhibition at 10 µM": 68}
{"smiles": "CCc1ccn2c(NC(C)(C)C)c(-c3ccc(C#Cc4ccccn4)o3)nc2c1", "note": "[Example 304, N-tert-butyl-7-ethyl-2-(5-(pyridin-2-ylethynyl)furan-2-yl)imidazo[1,2-a]pyridin-3-amine]", "inhibition at 10 µM": 94}
{"smiles": "Cc1cc(C)n2c(NCCc3ccccc3)c(-c3ccc(C#Cc4ccccc4)s3)nc2n1", "note": "[Example 194, 5,7-dimethyl-N-phenethyl-2-(5-(phenylethynyl)thiophen-2-yl)imidazo[1,2-a]pyrimidin-3-amine]", "inhibition at 10 µM": 30}
{"smiles": "COc1ccc(CNc2c(-c3ccc(C#Cc4ccccc4)s3)nc3ccc(C)cn23)cc1", "note": "[Example 11, (4-methoxy-benzyl)-[6-methyl-2-(5-phenylethynyl-thiophen-2-yl)-imidazo[1,2-a]pyridin-3-yl]-amine]", "inhibition at 10 µM": 82}
{"smiles": "Cc1ccn2c(Nc3ccc(F)cc3)c(-c3ccc(C#Cc4ccccn4)o3)nc2c1", "note": "[Example 279, N-(4-fluorophenyl)-7-methyl-2-(5-(pyridin-2-ylethynyl)furan-2-yl)imidazo[1,2-a]pyridin-3-amine]", "inhibition at 10 µM": 67}
{"smiles": "CC(C)(C)Nc1c(-c2cc(C#Cc3ccccc3)cs2)nc2cnccn12", "note": "[Example 55, tert-butyl-[2-(4-phenylethynyl-thiophen-2-yl)-imidazo[1,2-a]pyrazin-3-yl]-amine]", "inhibition at 10 µM": 77}
{"smiles": "Cc1nc(C#Cc2ccccc2)ccc1-c1nc2cnccn2c1NC1CCCCC1", "note": "[Example 244, N-cyclohexyl-2-(2-methyl-6-(phenylethynyl)pyridin-3-yl)imidazo[1,2-a]pyrazin-3-amine]", "inhibition at 10 µM": 54}
{"smiles": "Cc1ccn2c(NC(C)(C)C)c(-c3ccc(C#Cc4ccccn4)cc3)nc2c1", "note": "[Example 278, N-tert-butyl-7-methyl-2-(4-(pyridin-2-ylethynyl)phenyl)imidazo[1,2-a]pyridin-3-amine]", "inhibition at 10 µM": 93}
{"smiles": "C(#Cc1csc(-c2nc3cc(-c4ccccc4)ccn3c2NCCc2ccccc2)c1)c1ccccc1", "note": "[Example 229, N-phenethyl-7-phenyl-2-(4-(phenylethynyl)thiophen-2-yl)imidazo[1,2-a]pyridin-3-amine]", "inhibition at 10 µM": 30}
{"smiles": "CC(C)(C)c1ccn2c(Nc3ccccc3F)c(-c3ccc(C#Cc4ccccc4)s3)nc2c1", "note": "[Example 49, [7-tert-butyl-2-(5-phenylethynyl-thiophen-2-yl)-imidazo[1,2-a]pyridin-3-yl]-(2-fluoro-phenyl)-amine]", "inhibition at 10 µM": 85}
{"smiles": "Fc1ccc(Nc2c(-c3ccc(C#Cc4ccccn4)o3)nc3ccccn23)cc1", "note": "[Example 287, N-(4-fluorophenyl)-2-(5-(pyridin-2-ylethynyl)furan-2-yl)imidazo[1,2-a]pyridin-3-amine]", "inhibition at 10 µM": 30}
{"smiles": "Cc1cc(C)n2c(Nc3cccc(C(F)(F)F)c3)c(-c3cc(C#Cc4ccccc4)cs3)nc2n1", "note": "[Example 226, 5,7-dimethyl-2-(4-(phenylethynyl)thiophen-2-yl)-N-(3-(trifluoromethyl)phenyl)imidazo[1,2-a]pyrimidin-3-amine]", "inhibition at 10 µM": 41}
{"smiles": "Cc1cccc(C)c1Nc1c(-c2cc(C#Cc3ccccc3)cs2)nc2c(C)cc(Br)cn12", "note": "[Example 237, 6-bromo-N-(2,6-dimethylphenyl)-8-methyl-2-(4-(phenylethynyl)thiophen-2-yl)imidazo[1,2-a]pyridin-3-amine]", "inhibition at 10 µM": 36}
{"smiles": "Cc1cc(C)n2c(NC3CCCC3)c(-c3ccc(C#Cc4ccccn4)o3)nc2n1", "note": "[Example 294, N-cyclopentyl-5,7-dimethyl-2-(5-(pyridin-2-ylethynyl)furan-2-yl)imidazo[1,2-a]pyrimidin-3-amine]", "inhibition at 10 µM": 79}
{"smiles": "C(#Cc1csc(-c2nc3c(OCc4ccccc4)cccn3c2NC2CCCC2)c1)c1ccccc1", "note": "[Example 219, 8-(benzyloxy)-N-cyclopentyl-2-(4-(phenylethynyl)thiophen-2-yl)imidazo[1,2-a]pyridin-3-amine]", "inhibition at 10 µM": 33}
{"smiles": "Cc1ccn2c(NC(C)(C)C)c(-c3cccc(C#Cc4ccccn4)c3)nc2c1", "note": "[Example 276, N-tert-butyl-7-methyl-2-(3-(pyridin-2-ylethynyl)phenyl)imidazo[1,2-a]pyridin-3-amine]", "inhibition at 10 µM": 93}
{"smiles": "Cc1cc(Br)c2nc(-c3ccc(C#Cc4ccccn4)s3)c(NC3CCCC3)n2c1", "note": "[Example 92, 8-bromo-N-cyclopentyl-6-methyl-2-(5-(pyridin-2-ylethynyl)thiophen-2-yl)imidazo[1,2-a]pyridin-3-amine]", "inhibition at 10 µM": 82}
{"smiles": "COc1cccc(CCNc2c(-c3ccc(C#Cc4ccccc4)s3)nc3nc(C)cc(C)n23)c1", "note": "[Example 195, N-(3-methoxyphenethyl)-5,7-dimethyl-2-(5-(phenylethynyl)thiophen-2-yl)imidazo[1,2-a]pyrimidin-3-amine]", "inhibition at 10 µM": 53}
{"smiles": "C(#Cc1ccc(-c2nc3c(OCc4ccccc4)cccn3c2NCC2CCCCC2)s1)c1ccccc1", "note": "[Example 7, [8-benzyloxy-2-(5-phenylethynyl-thiophen-2-yl)-imidazo[1,2-a]pyridin-3-yl]-cyclohexylmethyl-amine]", "inhibition at 10 µM": 89}
{"target": "mGluR5 receptor (Sus scrofa, UniProt I3LUI7)", "assay": "Affinity for the mGluR5 receptor: inhibition of 3[H]-MPEP binding in pig brain homogenate", "conditions": "3[H]-MPEP binding", "in_short": "as §1", "units": {"IC50": "nM"}}
{"smiles": "CCN(CC)c1c(-c2ccc(C#Cc3ccccc3)s2)nc2cnccn12", "note": "[Example 93, N,N-diethyl-2-(5-(phenylethynyl)thiophen-2-yl)imidazo[1,2-a]pyrazin-3-amine]", "IC50": 250}
{"smiles": "CC(C)(C)Nc1c(-c2ccc(C#Cc3ccccc3[N+](=O)[O-])s2)nc2cnccn12", "note": "[Example 166, N-tert-butyl-2-(5-((2-nitrophenyl)ethynyl)thiophen-2-yl)imidazo[1,2-a]pyrazin-3-amine]", "IC50": 11300}
{"smiles": "CC(C)(C)Nc1c(-c2ccc(C#Cc3ccc(F)cc3)s2)nc2cnccn12", "note": "[Example 100, N-tert-butyl-2-(5-((4-fluorophenyl)ethynyl)thiophen-2-yl)imidazo[1,2-a]pyrazin-3-amine hydrochloride]", "IC50": 340}
{"smiles": "COc1cccc(C#Cc2ccc(-c3nc4cnccn4c3NC(C)(C)C)s2)c1", "note": "[Example 113, N-tert-butyl-2-(5-((3-methoxyphenyl)ethynyl)thiophen-2-yl)imidazo[1,2-a]pyrazin-3-amine hydrochloride]", "IC50": 75}
{"smiles": "COC(=O)CN(CC(=O)OC)c1c(-c2ccc(C#Cc3ccccc3)s2)nc2cnccn12", "note": "[Example 73, {(methoxycarbonylmethyl)-[2-(5-phenylethynyl-thiophen-2-yl)-imidazo[1,2-a]pyrazin-3-yl]-amino}-acetic acid methyl ester]", "IC50": 2210}
{"smiles": "COCc1cccc(C#Cc2ccc(-c3nc4ccccn4c3NC(C)(C)C)s2)c1", "note": "[Example 346, N-tert-butyl-2-(5-((3-(methoxymethyl)phenyl)ethynyl)thiophen-2-yl)imidazo[1,2-a]pyridin-3-amine]", "IC50": 670}
{"smiles": "CC(C)(C)Nc1c(-c2ccc(C#Cc3cccc(OC(F)(F)F)c3)s2)nc2cnccn12", "note": "[Example 333, tert-butyl-{2-[5-(3-trifluoromethoxy-phenylethynyl)-thiophen-2-yl]-imidazo[1,2-a]pyrazin-3-yl}-amine]", "IC50": 420}
{"smiles": "CC(C)(C)Nc1c(-c2ccc(C#Cc3cccnc3)s2)nc2cnccn12", "note": "[Example 82, tert-butyl-[2-(5-pyridin-3-ylethynyl-thiophen-2-yl)-imidazo[1,2-a]pyrazin-3-yl]-amine]", "IC50": 200}
{"smiles": "CC(C)(C)Nc1c(-c2ccc(C#Cc3nccs3)s2)nc2cnccn12", "note": "[Example 133, N-tert-butyl-2-(5-(thiazol-2-ylethynyl)thiophen-2-yl)imidazo[1,2-a]pyrazin-3-amine]", "IC50": 15}
{"smiles": "CC(C)(C)CC(C)(C)Nc1c(-c2ccc(C#Cc3ccccc3)s2)nc2ccccn12", "note": "[Example 59, [2-(5-phenylethynyl-thiophen-2-yl)-imidazo[1,2-a]pyridin-3-yl]-(1,1,3,3-tetramethyl-butyl)-amine]", "IC50": 2070}
{"smiles": "CC(C)(C)Nc1c(-c2ccc(C#Cc3ccsc3)s2)nc2ccccn12", "note": "[Example 350, N-tert-butyl-2-(5-(thiophen-3-ylethynyl)thiophen-2-yl)imidazo[1,2-a]pyridin-3-amine hydrochloride]", "IC50": 570}
{"smiles": "COC(=O)c1nccn2c(NC(C)(C)C)c(-c3ccc(C#Cc4ccccc4)s3)nc12", "note": "[Example 106, methyl-3-(tert-butylamino)-2-(5-(phenylethynyl)thiophen-2-yl)imidazo[1,2-a]pyrazine-8-carboxylate]", "IC50": 210}
{"smiles": "CC(C)(C)Nc1c(-c2ccc(C#Cc3ccccn3)s2)nc2c(Cl)nccn12", "note": "[Example 167, N-tert-butyl-8-chloro-2-(5-(pyridin-2-ylethynyl)thiophen-2-yl)imidazo[1,2-a]pyrazin-3-amine]", "IC50": 12}
{"smiles": "CC(C)(C)Nc1c(-c2ccc(C#Cc3ncccc3F)s2)nc2ccccn12", "note": "[Example 336, tert-butyl-{2-[5-(3-fluoro-pyridin-2-ylethynyl)-thiophen-2-yl]-imidazo[1,2-a]pyridin-3-yl}-amine hydrochloride]", "IC50": 6.1}
